We go through 38 compounds from US9458141B2, “Low molecular weight thyroid stimulating hormone receptor (TSHR) agonists” (The United States of America, as represented by the …, priority 2008, dated 2016).

The structures appear in SMILES notation.

This assay concerns the target T1, human TSHR (Homo sapiens, UniProt P16473).
T1 construct: expressed in transfected cells
Nature of the assay: Homogeneous Time Resolved Fluorescence (HTRF) cAMP assay, TSHR cell line. Type of assay: cell-based. The note with it: for AC50: HTRF cAMP, TSHR cell line, 30 minute incubation, read-out: AC50; for Emax: read-out: Maximum Activity compared to TSH, 100% activity = response of 30 mU/ml TSH, 0% = DMSO control; for Maximum Activity compared to TSH: 100% activity = response of 30 mU/ml TSH, 0% = DMSO control, in %. The source says: Generation of Stable Cell-Lines Expressing TSHR, LHCGR or FSHR.
cDNA for human TSHR was amplified by PCR from hTSHR-pSVL (1) and inserted into the pcDNA3.1(−)/hygromycin vector using restriction sites XhoI and BamHI. cDNA for human LHCGR was amplified by PCR from hLHR-pGS5 (2) and was inserted into the pcDNA3.1(+)/hygromycin vector using restriction sites BamHI and XhoI. The FSHR cDNA in pcDNA3.1 was obtained from the Missouri S&T cDNA Resource Center (www.cDNA.org) and was subcloned into the pcDNA3.1(−)/hygromycin vector. Constructs were confirmed by sequencing (MWG Biotech). HEK-EM 293 cells were transfected with the cDNA of TSHR, LHCGR or FSHR using FuGENE 6 Transfection reagent (Roche Diagnostics) according to the manufacturer's protocol. Two days after transfection cells were passaged and grown in Dulbecco's modified Eagle's Medium (DMEM) supplemented with 10% fetal bovine serum, 100 units/ml penicillin and 10 μg/ml streptomycin (Life Technologies Inc.) and with hygromycin (250 μg/ml) as a selection marker. After 7 to 10 days hygromycin-resistant clones were selected, and after a few days of further growth submitted for a cAMP assay to identify clones that stably express the appropriate receptor. Cell Culture. Cells stably expressing TSHR, LHCGR or FSHR and parental HEK 293 cells were maintained in DMEM medium containing 10% FBS, 100 units/ml Penicillin, 100 μg/ml Streptomycin, at 37° C. in 5% CO2. For the cells lines stably expressing TSHR, LHCGR or FSHR, additional 250 μg/ml Hygromycin was added during the cell culture. The cells were seeded at a density of 3 to 4 million cells in a T175 flask containing 35 ml of media and were allowed to grow for 3 days to reach 80-90% confluence. A flask of HEK 293 cells at this density generally yielded 30 million cells total. Homogeneous Time Resolved Fluorescence (HTRF) cAMP Assay. Compounds were assayed using a HTRF cAMP detection kit (Cisbio, Bedford, Mass.) on both TSHR cell line and parental cell line. Briefly, 750 cells were plated in 2.5 μl/well of complete media (DMEM containing 10% FCS) in 1536 well solid bottom white plates and 20 nl/well compound in DMSO solution or controls was added. Following 30 minute incubation at room temperature, 2.5 μl/well of labeled d2 cAMP and 2.5 μl/well of anti-cAMP antibody (both diluted 1:20 in lysis buffer) were added to each well using a flying reagent dispenser (Aurora Discovery, San Diego). Plates were measured using the Envision plate reader (PerkinElmer, Boston, Mass.) with excitation at 330 nm and emissions of 615 nm and 660 nm. Compound Preparation. […] Data Analysis. […] The EC50 values of compounds were calculated from the concentration-response curves by nonlinear regression analysis using Prism software (GraphPad Software, San Diego, Calif.). Confirmatory cAMP Assay and Test for Selectivity Towards TSHR 50,000 cells/well were plated in complete media (DMEM containing 10% FCS) in 96 well plates. […] Following aspiration of the medium after incubation with compounds, cells were lysed using lysis buffer of the cAMP-Screen Direct™ System (Applied Biosystems, Cat # CSD200). The cAMP content of the cell lysate was determined using the manufacturer's protocol. […] Below is a List of Compounds that were Assayed via the Homogeneous Time Resolved Fluorescence (HTRF) cAMP Assay.
(In TR-FRET formats the signal depends on donor and acceptor labels being close together.)

A word on the AC50: it is the concentration giving half of the maximal activity seen.

T1 sequence (P16473 21-764): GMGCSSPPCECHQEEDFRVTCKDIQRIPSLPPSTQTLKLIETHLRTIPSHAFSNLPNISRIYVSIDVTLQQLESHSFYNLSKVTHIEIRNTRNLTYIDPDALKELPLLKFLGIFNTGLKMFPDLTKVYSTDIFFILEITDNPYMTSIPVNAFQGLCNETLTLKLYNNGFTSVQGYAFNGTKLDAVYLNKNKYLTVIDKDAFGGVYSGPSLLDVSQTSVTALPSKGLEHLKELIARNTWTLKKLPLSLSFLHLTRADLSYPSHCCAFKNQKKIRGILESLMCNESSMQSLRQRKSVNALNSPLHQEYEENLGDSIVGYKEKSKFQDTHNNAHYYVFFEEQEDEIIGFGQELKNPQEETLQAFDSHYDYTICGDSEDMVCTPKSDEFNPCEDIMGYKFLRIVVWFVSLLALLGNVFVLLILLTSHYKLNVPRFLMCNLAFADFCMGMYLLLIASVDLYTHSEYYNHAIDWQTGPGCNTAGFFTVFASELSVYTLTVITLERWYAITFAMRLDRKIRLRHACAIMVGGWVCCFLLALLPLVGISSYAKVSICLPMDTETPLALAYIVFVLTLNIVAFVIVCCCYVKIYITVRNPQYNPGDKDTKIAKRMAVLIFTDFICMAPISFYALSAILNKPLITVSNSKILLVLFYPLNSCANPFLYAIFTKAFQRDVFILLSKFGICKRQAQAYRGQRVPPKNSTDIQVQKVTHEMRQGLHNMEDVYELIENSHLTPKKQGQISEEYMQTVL

On to `COc1ccc(C2Cc3ccccc3C(=O)N2Cc2ccco2)cc1COc1ccc(NC(C)=O)cc1` (stereo not shown) [Structure 29], for which the AC50 turned out to be 17.8 µM and the Emax is 139%.

With `COc1ccc(CN2C(=O)c3ccccc3NC2c2ccc(OC)c(COc3ccc(NC(C)=O)cc3)c2)cc1` (stereo not shown) [Structure 30], the “Maximum Activity compared to TSH” value is reported as 63.65 and the AC50 turned out to be 3.16 µM.

As to `COc1ccc(CN(Cc2ccccc2)C(=O)c2ccccc2)cc1COc1ccc(NC(C)=O)cc1` [Structure 31], the “Maximum Activity compared to TSH” value was 153.40 and the AC50 worked out at 11.2 µM.

For the compound `COc1ccc(C2Nc3ccc(NC(C)=O)cc3C(=O)N2Cc2ccccc2)cc1COc1ccc(NC(C)=O)cc1` (stereo not shown) [Structure 32], the “Maximum Activity compared to TSH” value came to 137.62 and the AC50 is 15.8 µM.

Regarding `COc1ccc(-c2nc3ccccc3c(=O)n2Cc2ccco2)cc1COc1ccc(NC(C)=O)cc1` [Structure 33], the AC50 came to 17.8 µM and the Emax was 169%.

Take `COc1ccc(C2Nc3ccccc3C(=O)N2Cc2ccco2)cc1COc1ccc(NC(C)=O)cc1` (stereo not shown) [Structure 34]: the “Maximum Activity compared to TSH” value was 122.30 and the AC50 was 15.8 µM.

In the case of `COc1ccc(C2Oc3ccccc3C(=O)N2Cc2ccccc2)cc1COc1ccc(NC(C)=O)cc1` (stereo not shown) [Structure 35], the “Maximum Activity compared to TSH” value was found to be 115.01 and the AC50 was determined as 12.6 µM.

For the compound `COc1ccc(C2Nc3ccc(NC(=O)CO)cc3C(=O)N2Cc2cccc(Cl)c2)cc1COc1ccc(NC(C)=O)cc1` (stereo not shown) [Structure 36], the AC50 is 5.62 µM and the Emax worked out at 115%.

In the case of `COc1ccc(C2Nc3ccccc3C(=O)N2Cc2ccccc2)cc1CSc1ccc(NC(C)=O)cc1` (stereo not shown) [Structure 38], the “Maximum Activity compared to TSH” value was 573.36 and the AC50 was 7.08 µM.

In the case of `CCCCN1C(=O)c2ccccc2NC1c1ccc(OC)c(COc2ccc(NC(C)=O)cc2)c1` (stereo not shown) [Structure 39], the “Maximum Activity compared to TSH” value was found to be 123.60 and the half-maximal activity concentration (AC50) was determined as 20 µM.

Take `COc1ccc(CN(Cc2ccccc2)C(=O)c2ccccc2)cc1COc1ccc(NC(C)=O)cc1` [Structure 40]: the “Maximum Activity compared to TSH” value is given as 128.80 and the AC50 turned out to be 11.2 µM.

Consider `COc1ccc(CN(Cc2ccccc2)C(=O)c2ccco2)cc1COc1ccc(NC(C)=O)cc1` [Structure 41], for which the “Maximum Activity compared to TSH” value worked out at 122.50 and the AC50 was determined as 15.8 µM.

On to `COc1ccc(C2Nc3ccccc3C(=O)N2Cc2ccco2)cc1COc1ccc(NC(C)=O)cc1` (stereo not shown) [Structure 42], for which the “Maximum Activity compared to TSH” value turned out to be 131.51 and the AC50 came to 14.1 µM.

Consider `COc1ccc(C2Nc3ccc(NC(=O)CO)cc3C(=O)N2Cc2cccc(Cl)c2)cc1COc1ccc(NC(C)=O)cc1` (stereo not shown) [Structure 43], for which the “Maximum Activity compared to TSH” value is 128.45 and the half-maximal activity concentration (AC50) turned out to be 10 µM.

With `COc1ccc(C2Nc3ccccc3C(=O)N2Cc2cccc(Cl)c2)cc1COc1ccc(NC(C)=O)cc1` (stereo not shown) [Structure 44], the “Maximum Activity compared to TSH” value was determined as 105.58 and the AC50 was found to be 7.08 µM.

As for `COc1ccc(C(=O)N(Cc2ccccc2)Cc2ccc(OC)c(COc3ccc(NC(C)=O)cc3)c2)cc1` [Structure 45], the “Maximum Activity compared to TSH” value was found to be 141.85 and the AC50 stood at 14.1 µM.

As for `COc1cccc(CN2C(=O)c3ccccc3NC2c2ccc(OC)c(COc3ccc(NC(C)=O)cc3)c2)c1` (stereo not shown) [Structure 46], the “Maximum Activity compared to TSH” value amounted to 182.52 and the half-maximal activity concentration (AC50) was 7.94 µM.

For `COc1ccc(-c2nc3ccccc3c(=O)n2Cc2ccco2)cc1COc1ccc(NC(C)=O)cc1` [Structure 47], the “Maximum Activity compared to TSH” value is given as 165.16 and the AC50 is 25.1 µM.

Turning to `COc1ccc(C2Nc3ccc(NC(=O)COC(C)=O)cc3C(=O)N2Cc2ccccc2)cc1COc1ccc(NC(C)=O)cc1` (stereo not shown) [Structure 48], the “Maximum Activity compared to TSH” value is listed as 106.48 and the AC50 stood at 8.91 µM.

As to `COc1ccc(C2Nc3ccccc3C(=O)N2Cc2cccc(Cl)c2)cc1COc1ccc(NC(C)=O)cc1` (stereo not shown) [Structure 50], the “Maximum Activity compared to TSH” value stood at 70.37 and the AC50 was found to be 2.82 µM.

On to `COc1ccc(-c2nc3ccccc3c(=O)n2Cc2ccccc2)cc1COc1ccc(NC(C)=O)cc1` [Structure 52], for which the “Maximum Activity compared to TSH” value was 104.78 and the AC50 came to 8.91 µM.

Take `COc1ccc(C2Nc3ccccc3C(=O)N2Cc2ccco2)cc1COc1ccc(NC(C)=O)cc1` (stereo not shown) [Structure 53]: the “Maximum Activity compared to TSH” value came out at 141.76 and the AC50 came to 12.6 µM.

Turning to `COc1ccc(C2Cc3ccccc3C(=O)N2Cc2ccccc2)cc1COc1ccc(NC(C)=O)cc1` (stereo not shown) [Structure 54], the “Maximum Activity compared to TSH” value amounted to 115.69 and the AC50 stood at 10 µM.

Consider `COc1ccc(CN(Cc2ccccc2)C(=O)c2ccccc2)cc1COc1ccc(NC(C)=O)cc1` [Structure 57], for which the “Maximum Activity compared to TSH” value is 100.67 and the AC50 is 14.1 µM.

For `COc1ccc(CN(Cc2ccccc2)C(=O)c2ccccc2)cc1COc1ccc(NC(C)=O)cc1` [Structure 58], the “Maximum Activity compared to TSH” value was 93.09 and the AC50 was 8.91 µM.

`COc1ccc(C2Nc3ccccc3C(=O)N2Cc2ccco2)cc1COc1ccc(NC(C)=O)cc1` (stereo not shown) [Structure 59]: the “Maximum Activity compared to TSH” value worked out at 226.43 and the concentration at half-maximal activity (AC50) worked out at 17.8 µM.

Take `COc1ccc(C2Nc3ccccc3C(=O)N2Cc2cccc(C(F)(F)F)c2)cc1COc1ccc(NC(C)=O)cc1` (stereo not shown) [Structure 60]: the “Maximum Activity compared to TSH” value stood at 189.97 and the half-maximal activity concentration (AC50) was determined as 6.31 µM.

In the case of `COc1ccc(C2Nc3cccc(O)c3C(=O)N2Cc2ccccc2)cc1COc1ccc(NC(C)=O)cc1` (stereo not shown) [Structure 61], the “Maximum Activity compared to TSH” value amounted to 302.11 and the AC50 was determined as 7.94 µM.

With `COc1ccc(-c2nc3ccccc3c(=O)n2Cc2ccccc2)cc1COc1ccc(NC(C)=O)cc1` [Structure 64], the “Maximum Activity compared to TSH” value is 70.53 and the AC50 was determined as 7.94 µM.

`COc1ccc(CN(Cc2ccccc2)C(=O)c2ccccc2O)cc1COc1ccc(NC(C)=O)cc1` [Structure 65]: the AC50 came to 14.1 µM and the Emax was found to be 51.6%.

As for `COc1ccc(C2Nc3ccc(NC(=O)COC(C)=O)cc3C(=O)N2Cc2ccccc2)cc1COc1ccc(NC(C)=O)cc1` (stereo not shown) [Structure 66], the “Maximum Activity compared to TSH” value was found to be 64.52 and the AC50 was 8.91 µM.

On to `COc1ccc(C2Nc3ccccc3C(=O)N2CCc2ccccc2)cc1COc1ccc(NC(C)=O)cc1` (stereo not shown) [Structure 67], for which the “Maximum Activity compared to TSH” value was found to be 82.36 and the half-maximal activity concentration (AC50) worked out at 7.94 µM.

With `COc1ccc(CN(Cc2ccccc2)C(=O)C2CC2)cc1COc1ccc(NC(C)=O)cc1` [Structure 68], the half-maximal activity concentration (AC50) amounted to 22.4 µM and the Emax was found to be 74.8%.

Take `COc1ccc(CN(Cc2ccccc2)C(=O)c2ccncc2)cc1COc1ccc(NC(C)=O)cc1` [Structure 69]: the “Maximum Activity compared to TSH” value came to 44.83 and the AC50 worked out at 25.1 µM.

On to `COc1ccc(C2Nc3ccccc3C(=O)N2CCc2ccccc2)cc1COc1ccc(NC(C)=O)cc1` (stereo not shown) [Structure 70], for which the “Maximum Activity compared to TSH” value was 53.96 and the AC50 worked out at 10 µM.

With `COc1ccc(CN(Cc2ccccc2)C(=O)c2cccc(C#N)c2)cc1COc1ccc(NC(C)=O)cc1` [Structure 71], the “Maximum Activity compared to TSH” value was 44.19 and the concentration at half-maximal activity (AC50) came to 7.94 µM.

Take `COc1ccc(C2Nc3ccccc3C(=O)N2Cc2ccc(Cl)cc2)cc1COc1ccc(NC(C)=O)cc1` (stereo not shown) [Structure 72]: the AC50 turned out to be 3.98 µM and the Emax stood at 55.2%.

For the compound `COc1ccc(CN(Cc2ccccc2)C(=O)c2ccc(O)cc2)cc1COc1ccc(NC(C)=O)cc1` [Structure 73], the “Maximum Activity compared to TSH” value was found to be 75.04 and the concentration at half-maximal activity (AC50) amounted to 28.2 µM.
